Experimental data as given in patent US20080026996A1, “Selective Vpac2 Receptor Reptide Agonists” (ELI LILLY AND COMPANY, priority 2004, published 2008).
pEC50, pIC50: −log10 of the molar value. Where no end group is shown, it is not given here. [ ]: non-standard residue; d: D form. The star is where a group is joined. Hexanoyl = CCCCCC(=O)*; Aib = CC(C)(N)C(=O)O

Assays:
[1] = target: T1, human PAC1 (Homo sapiens, UniProt P41586); assay: Filter binding assay, membranes of cells transiently transfected with human PAC1, 125I-labeled PACAP-27 tracer (Table 2); set-up: expressed in transfected cells; details: read-out: Human PAC1 Receptor Binding
T1 sequence (P41586 21-468): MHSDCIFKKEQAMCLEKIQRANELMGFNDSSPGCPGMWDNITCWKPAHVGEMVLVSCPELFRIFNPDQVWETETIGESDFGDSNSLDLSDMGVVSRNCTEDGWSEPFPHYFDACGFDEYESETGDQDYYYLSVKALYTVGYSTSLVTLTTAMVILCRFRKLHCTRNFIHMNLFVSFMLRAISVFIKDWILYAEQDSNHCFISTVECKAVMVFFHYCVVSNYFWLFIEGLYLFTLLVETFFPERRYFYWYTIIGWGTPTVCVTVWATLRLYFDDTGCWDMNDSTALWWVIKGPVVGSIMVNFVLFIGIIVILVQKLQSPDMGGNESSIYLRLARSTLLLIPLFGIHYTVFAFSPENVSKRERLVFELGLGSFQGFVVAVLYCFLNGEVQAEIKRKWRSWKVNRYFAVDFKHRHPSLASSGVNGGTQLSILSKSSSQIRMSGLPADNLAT
In short: (§1)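 Scintillation counting of filter-retained radioligand gave the read-out. Compounds competed with the labelled tracer (about 40000 cpm) for 2.5 μg membranes during 1 hour of shaking in HEPES pH 7.4 buffer containing 0.5% BSA.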

[2] = target: T2, human VPAC2 (Homo sapiens, UniProt P41587); assay: Alpha screen cAMP in vitro potency, human VPAC2 receptor; type: cell-based; details: cAMP generation; single result from two analyses performed in a single run; read-out: Human VPAC2 Receptor: Alpha Screen EC50
T2 construct: expressed in transfected cells
T2 sequence (P41587 24-438): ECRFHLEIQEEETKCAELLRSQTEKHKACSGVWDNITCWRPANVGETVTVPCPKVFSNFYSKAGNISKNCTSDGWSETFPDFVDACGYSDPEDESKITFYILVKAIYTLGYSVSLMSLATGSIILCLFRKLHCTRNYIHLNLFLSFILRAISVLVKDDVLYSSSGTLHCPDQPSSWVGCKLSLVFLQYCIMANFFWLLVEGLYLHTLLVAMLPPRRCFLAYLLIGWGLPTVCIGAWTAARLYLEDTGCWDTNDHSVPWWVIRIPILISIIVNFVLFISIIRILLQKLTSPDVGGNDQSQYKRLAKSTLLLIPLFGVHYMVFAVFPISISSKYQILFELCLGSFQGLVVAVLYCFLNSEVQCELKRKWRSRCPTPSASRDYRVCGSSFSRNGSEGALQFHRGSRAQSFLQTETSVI
In short: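 Cells were detached with enzyme-free dissociation buffer, washed into stimulation buffer and used at 50,000 cells per data point. Stimuli and AlphaScreen acceptor beads were added for 60 minutes, then lysis buffer with donor beads for 60 to 120 minutes; the AlphaScreen signal reports intracellular cAMP.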

[3] = target: T2, human VPAC2; assay: Filter binding assay, membranes of stable VPAC2 cell line, 125I-labeled VIP tracer (Table 2); details: read-out: Human VPAC2 Receptor Binding
In short: as §1

[4] = target: T3, human VPAC1 (Homo sapiens, UniProt P32241); assay: Filter binding assay, membranes of cells transiently transfected with human VPAC1, 125I-labeled VIP tracer (Table 2); set-up: expressed in transfected cells; details: read-out: Human VPAC1 Receptor Binding
T3 sequence (P32241 31-457): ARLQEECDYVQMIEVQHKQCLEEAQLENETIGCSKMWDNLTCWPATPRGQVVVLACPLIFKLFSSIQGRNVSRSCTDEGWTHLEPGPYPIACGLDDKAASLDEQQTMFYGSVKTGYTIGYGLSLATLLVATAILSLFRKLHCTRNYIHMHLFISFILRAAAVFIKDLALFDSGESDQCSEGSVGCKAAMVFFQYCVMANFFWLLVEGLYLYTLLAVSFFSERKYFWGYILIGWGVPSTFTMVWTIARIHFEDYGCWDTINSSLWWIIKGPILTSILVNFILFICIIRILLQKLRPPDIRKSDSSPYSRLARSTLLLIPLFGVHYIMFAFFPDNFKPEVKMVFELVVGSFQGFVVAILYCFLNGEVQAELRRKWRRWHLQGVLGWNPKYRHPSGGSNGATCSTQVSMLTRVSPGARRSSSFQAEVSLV
In short: as §1

[5] = Rat serum stability studies (remaining active peptide by DiscoveRx cAMP on CHO-VPAC2 cells); type: in vitro ADME
In short: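 Rat serum, 18 h: +aprotinin aliquot at 4° C, no-aprotinin aliquot at 37° C. Then 30 min RT step, supernatant removed, 1 h shaking at 300 rpm. DiscoveRx cAMP kit on CHO-VPAC2; EC50 from cAMP data vs standards.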

| Substance | pIC50 [1] | pEC50 [2] | pIC50 [3] | pIC50 [4] | Rat Serum Stability (estimated purity in % after 18 hours) [5] | Rat Serum Stability (Estimated purity in % after 72 hours) [5] |
| --- | --- | --- | --- | --- | --- | --- |
| Hexanoyl-HSDAVFTDNYTRLKKQVAAKKYLQSIKNKRYGGPSSGAPPPS [Agonist P171] | 6.47 | 9.09 | 8.24 | 6.76 | 1.78% |  |
| Hexanoyl-HSDAVFTDNYTRLLKQVAAKKYLQSIKNKRYGGPSSGAPPPS [Agonist P174] | 6.21 | 9.59 | 7.26 | 6.52 | 1.91% |  |
| Hexanoyl-HSDAVFTDNYTRLL[Aib]QVAA[Aib]KYLQSIKNKRYGGPSSGAPPPS [Agonist P317] | < 4.60 | 9.44 | 8.91 | < 5.52 | 33.34% | 21.5% |
| Hexanoyl-HSDAVFTDNYTRLQKQVAAKKYLQSIKNKRYGGPSSGAPPPS [Agonist P172] | 6.30 | 9.54 | 8.45 | 6.39 | 5.95% |  |
| Hexanoyl-HSDAVFTDNYTRLQKQVAAKQYLQSIKNKRYGGPSSGAPPPS [Agonist P253] | < 4.60 | 9.34 | 8.75 | 5.67 | 1.27% |  |
| Hexanoyl-HSDAVFTDNYTRLQKQVAAK[Aib]YLQSIKNKRYGGPSSGAPPPS [Agonist P251] | < 4.60 | 9.04 | 8.63 | < 5.52 | 6.63% |  |
| Hexanoyl-HSDAVFTDNYTRLQKQVAAQKYLQSIKNKRYGGPSSGAPPPS [Agonist P252] | < 4.60 | 9.59 | 9.01 | 5.93 | 1.19% |  |
| Hexanoyl-HSDAVFTDNYTRLQKQVAA[Aib]KYLQSIKNKRYGGPSSGAPPPS [Agonist P250] | < 4.60 | 9.74 | 9.20 | 6.07 | 7.11% |  |
| Hexanoyl-HSDAVFTDNYTRLQ[Aib]QVAAKKYLQSIKNKRYGGPSSGAPPPS [Agonist P258] | < 4.60 | 9.77 | 9.20 | < 5.52 | 9.47% |  |
| Hexanoyl-HSDAVFTDNYTRLQ[Aib]QVAA[Aib]KYLQSIKNKRYGGPSSGAPPPS [Agonist P302] | < 4.60 | 9.35 | 8.79 | < 5.52 | 21.43% |  |
| Hexanoyl-HSDAVFTDNYTRLRAQLAAQKYLQSIKNKRYGGPSSGAPPPS [Agonist P142] | 5.92 | 9.82 | 9.24 | 6.44 | 0.51% |  |
| Hexanoyl-HSDAVFTDNYTRLRAQVAAKKYLQSIKNKRYGGPSSGAPPPS [Agonist P139] | < 4.60 | 9.70 | 9.47 | 6.63 | 0.33% |  |
| Hexanoyl-HSDAVFTDNYTRLRAQVAAQKYLQSIKNKRYGGPSSGAPPPS [Agonist P138] | 5.95 | 9.35 | 9.00 | 8.28 | 0.48% |  |
| Hexanoyl-HSDAVFTDNYTRLRK(Ac)QVAAK(Ac)KYLQSIKNKRYGGPSSGAPPPS [Agonist P193] | 6.27 | 9.74 | 9.43 | 6.60 | 0.25% |  |
| Hexanoyl-HSDAVFTDNYTRLRK(Ac)QVAAKK(Ac)YLQSIKNKRYGGPSSGAPPPS [Agonist P194] | 6.20 | 9.89 | 9.55 | 6.76 | 1.11% |  |
| Hexanoyl-HSDAVFTDNYTRLRKQLAAKKYLQSIKNKRYGGPSSGAPPPS [Agonist P290] | 6.68 | 9.66 | 9.57 | 6.66 | 0.11% |  |
| Hexanoyl-HSDAVFTDNYTRLRKQVAAAKYLQSIKNKRYGGPSSGAPPPS [Agonist P181] | 6.28 | 9.89 | 9.54 | 6.49 | <0.53% |  |
| Hexanoyl-HSDAVFTDNYTRLRKQVAAFKYLQSIKNKRYGGPSSGAPPPS [Agonist P148] | 6.00 | 10.00 | 9.11 | 6.61 | <0.10% |  |
| Hexanoyl-HSDAVFTDNYTRLRKQVAAIKYLQSIKNKRYGGPSSGAPPPS [Agonist P149] | 6.11 | 9.39 | 9.21 | 6.67 | 0.29% |  |
| Hexanoyl-HSDAVFTDNYTRLRKQVAAKAYLQSIKNKRYGGPSSGAPPPS [Agonist P184] | 6.47 | 9.66 | 9.64 | 6.49 | 0.29% |  |
| Hexanoyl-HSDAVFTDNYTRLRKQVAAKFYLQSIKNKRYGGPSSGAPPPS [Agonist P186] | 6.50 | 9.82 | 9.06 | 6.08 | 0.25% |  |
| Hexanoyl-HSDAVFTDNYTRLRKQVAAKKYAQSIKNKRYGGPSSGAPPPS [Agonist P235] | 5.95 | 9.09 | 8.83 | 5.87 | 2.62% |  |
